Reference: patent US6369003B1, “Process and composition for soil improvement by reducing microbially formed ethylene in the soil” (BASF Aktiengesellschaft, priority 1994, dated 2002)

How the values were obtained:
[1] = system: Peas (Kleine Rheinländerin); test: Peas test 2a: biomass, root nodules, nitrogen assimilation, greenhouse; assay type: in vivo, Pisum sativum; conditions: 3 weeks after treatment; for Dry matter (shoot + root): control 3.3; for Nodules: control 13; for Total N (total nitrogen in shoot + root): control 78.5
Method: (§1) In these tests various types of non-sterile soils were used. The cultivation of the plants was carried out under greenhouse or climatic chamber conditions. The active compounds according to the invention were applied uniformly distributed over the soil surface in an aqueous preparation after the emergence of the respective test plants. The supply of water for the plants was carrried out using the same technique, always paying attention to uniform moistness of the soil. In the case of the cultivation of legumes, defined amounts of species-specific Rhizobia were admixed to the soil. In some cases inoculation was also carried out by seed treatment.
a) Peas (Kleine Rheinländerin) were cultivated under greenhouse conditions in low N Limburgerhof soil in plastic pots (500 ml) and watered from above as required (a constant weight was maintained here). A few days after emergence the plants were thinned out to 5 plants per pot.
(§2) In four pots in each case aqueous active compound solutions of one concentration of 2.3.1.3 were applied by watering. Four pots remained untreated.
3 weeks after treatment the following results were obtained: […]

[2] = system: Peas (Kleine Rheinländerin); test: Peas test 2b: biomass and root nodules, greenhouse; assay type: in vivo, Pisum sativum; conditions: 12 days after treatment; for Dry matter (shoot + root): control 2.55; for Nodules: control 20
Method: as §1
b) Peas (Kleine Rheinländerin) were cultivated under greenhouse conditions in low N Limburgerhof soil in plastic pots (500 ml) and watered from above as required (constant weight). A few days after emergence the plants were thinned out to 5 plants per pot.
as §2
12 days after treatment the following results were obtained: […]

[3] = system: Soybean plants (Delta Pine 415); test: Soybeans test 3a: root nodules and total N, greenhouse; assay type: in vivo, Glycine max; conditions: after 3 weeks; for Nodules: untreated 49
Method: as §1
a) Soybean plants (Delta Pine 415) were cultivated under greenhouse conditions in low N Limburgerhof soil in plastic pots (500 ml) and watered from above as required. A few days after emergence the plants were thinned out to 5 plants per pot.
In 8 pots in each case per test member an aqueous active compound solution of 2.3.1.3 was applied by watering. 16 pots remained untreated in each case.

Chick-pea plants (UC-27) = test: Chick-peas: root nodules, root and shoot biomass, greenhouse; assay type: in vivo, Cicer arietinum; conditions: 25 days after treatment; for Nodules: untreated 11.3; for Dry matter root: untreated 1100; for Dry matter shoot: untreated 2110
Method: as §1
Chick-pea plants (UC-27) were cultivated under greenhouse conditions in low N, sandy loam soil in plastic pots (750 ml) and watered from above as required. A few days after emergence the plants were thinned out to 3 plants per pot.
In 6 pots in each case 25 ml each of an aqueous preparation of one concentration of 2.3.1.3 were applied by watering. 6 pots remained untreated.
25 days after treatment the following results were obtained: […]

[4] = system: Soybeans of the variety Delta Pine 147; test: Field test: seed yield in soybeans; assay type: in vivo, Glycine max; conditions: untreated = 100 (29.9 dt/ha)
Method: The tests a) and b) were carried out under conditions like those in practice in 1993 on the field test site of BASF Corporation in Holly Springs, N.C., USA. This location is distinguished by a medium-heavy soil (sandy loam).
Soybeans of the variety Delta Pine 147 were used. Treatment was carried out to the following stages of development: 11 (1st trefoil formed), 13 (3rd trefoil formed) and 14 (5th trefoil formed). For treatment, the soil between the rows was sprayed with an aqueous preparation of the active compound 2.3.1.3. Immediately after the application, the active compound was washed into the soil by spray irrigation with 20 mm of water. The spray irrigation was also used to wash off active compound which had possibly reached the leaves.
Harvesting of the plants at full maturity gave the following results: […]

[5] = system: Groudnuts of the variety Florigiant; test: Field test: seed yield and seed quality in groundnuts; assay type: in vivo, Arachis hypogaea; conditions: for Seeds of the highest quality level: relative, untreated = 100 (38.0 %); for Yield of groundnuts: untreated = 100 (45.4 dt/ha)
Method: The tests a) and b) were carried out under conditions like those in practice in 1993 on the field test site of BASF Corporation in Holly Springs, N.C., USA. This location is distinguished by a medium-heavy soil (sandy loam). Groudnuts of the variety Florigiant were used. Treatment was carried out 20, 27 and 34 days after emergence of the plants. For treatment, the soil between the rows was sprayed with an aqueous preparation of the active compound 2.3.1.3. Immediately after application the active compound was washed into the soil by spray irrigation with 20 mm of water. The spray irrigation was also used to wash off active compound which had possibly reached the leaves. Harvesting of the plants at full maturity gave the following results: […]

[6] = 10 g/ha of a.s., treated 20 days after emergence
[7] = 10 g/ha of a.s., treated 27 days after emergence
[8] = 10 g/ha of a.s., treated 34 days after emergence
[9] = 100 g/ha of a.s., treated 20 days after emergence
[10] = 100 g/ha of a.s., treated 27 days after emergence
[11] = 100 g/ha of a.s., treated 34 days after emergence
[12] = 1000 g/ha of a.s., treated 20 days after emergence
[13] = 1000 g/ha of a.s., treated 27 days after emergence
[14] = 1000 g/ha of a.s., treated 34 days after emergence

Compound: COC(=O)COC(=O)CON=C(C)C [active compound 2.3.1.3]
- Dry matter (shoot + root) ([1]; 0.03 mg/pot): 3.2 g/pot
- Nodules ([1]; 0.03 mg/pot): 28 number/pot
- Total N (total nitrogen in shoot + root) ([1]; 0.03 mg/pot): 75.0 mg/pot
- Dry matter (shoot + root) ([1]; 0.30 mg/pot): 4.0 g/pot
- Nodules ([1]; 0.30 mg/pot): 127 number/pot
- Total N (total nitrogen in shoot + root) ([1]; 0.30 mg/pot): 120.5 mg/pot
- Dry matter (shoot + root) ([1]; 3.00 mg/pot): 3.1 g/pot
- Nodules ([1]; 3.00 mg/pot): 99 number/pot
- Total N (total nitrogen in shoot + root) ([1]; 3.00 mg/pot): 109.5 mg/pot
- Dry matter (shoot + root) ([2]; 0.001 mg/pot): 2.65 g/pot
- Nodules ([2]; 0.001 mg/pot): 31 number/pot
- Dry matter (shoot + root) ([2]; 0.003 mg/pot): 3.07 g/pot
- Nodules ([2]; 0.003 mg/pot): 68 number/pot
- Dry matter (shoot + root) ([2]; 0.010 mg/pot): 3.00 g/pot
- Nodules ([2]; 0.010 mg/pot): 66 number/pot
- Dry matter (shoot + root) ([2]; 0.030 mg/pot (insect attack)): 2.32 g/pot
- Nodules ([2]; 0.030 mg/pot (insect attack)): 30 number/pot
- Dry matter (shoot + root) ([2]; 0.100 mg/pot): 2.52 g/pot
- Nodules ([2]; 0.100 mg/pot): 59 number/pot
- Dry matter (shoot + root) ([2]; 0.300 mg/pot): 3.13 g/pot
- Nodules ([2]; 0.300 mg/pot): 76 number/pot
- Total N (shoot + root) ([3]; 0.003 mg of a.s./pot): 109 % of control
- Nodules ([3]; 0.003 mg of a.s./pot): 60 number/pot
- Total N (shoot + root) ([3]; 0.030 mg of a.s./pot): 108 % of control
- Nodules ([3]; 0.030 mg of a.s./pot): 62 number/pot
- Total N (shoot + root) ([3]; 0.300 mg of a.s./pot): 118 % of control
- Nodules ([3]; 0.300 mg of a.s./pot): 73 number/pot
- Nodules (Chick-pea plants (UC-27); 30 g of a.s./ha): 31.4 number/plant
- Dry matter root (Chick-pea plants (UC-27); 30 g of a.s./ha): 1280 mg/plant
- Dry matter shoot (Chick-pea plants (UC-27); 30 g of a.s./ha): 2690 mg/plant
- Nodules (Chick-pea plants (UC-27); 300 g of a.s./ha): 44.0 number/plant
- Dry matter root (Chick-pea plants (UC-27); 300 g of a.s./ha): 1520 mg/plant
- Dry matter shoot (Chick-pea plants (UC-27); 300 g of a.s./ha): 3350 mg/plant
- Nodules (Chick-pea plants (UC-27); 3000 g of a.s./ha): 6.2 number/plant
- Dry matter root (Chick-pea plants (UC-27); 3000 g of a.s./ha): 1150 mg/plant
- Dry matter shoot (Chick-pea plants (UC-27); 3000 g of a.s./ha): 4110 mg/plant
- Bean yield ([4]; 10 g/ha of a.s., growth stage 11 during treatment): 104%
- Bean yield ([4]; 10 g/ha of a.s., growth stage 13 during treatment): 116%
- Bean yield ([4]; 10 g/ha of a.s., growth stage 14 during treatment): 110%
- Bean yield ([4]; 100 g/ha of a.s., growth stage 11 during treatment): 122%
- Bean yield ([4]; 100 g/ha of a.s., growth stage 13 during treatment): 117%
- Bean yield ([4]; 100 g/ha of a.s., growth stage 14 during treatment): 112%
- Bean yield ([4]; 1000 g/ha of a.s., growth stage 11 during treatment): 110%
- Bean yield ([4]; 1000 g/ha of a.s., growth stage 13 during treatment): 122%
- Bean yield ([4]; 1000 g/ha of a.s., growth stage 14 during treatment): 108%
- Seeds of the highest quality level [5, 6]: 124%
- Yield of groundnuts [5, 6]: 108%
- Seeds of the highest quality level [5, 7]: 121%
- Yield of groundnuts [5, 7]: 109%
- Seeds of the highest quality level [5, 8]: 113%
- Yield of groundnuts [5, 8]: 124%
- Seeds of the highest quality level [5, 9]: 95%
- Yield of groundnuts [5, 9]: 121%
- Seeds of the highest quality level [5, 10]: 113%
- Yield of groundnuts [5, 10]: 104%
- Seeds of the highest quality level [5, 11]: 84%
- Yield of groundnuts [5, 11]: 121%
- Seeds of the highest quality level [5, 12]: 103%
- Yield of groundnuts [5, 12]: 113%
- Seeds of the highest quality level [5, 13]: 113%
- Yield of groundnuts [5, 13]: 120%
- Seeds of the highest quality level [5, 14]: 108%
- Yield of groundnuts [5, 14]: 113%
